Laboratory results: patent US20130310428A1, “THERMO-STABLE, ARSENIC-FREE SYNERGISTIC BIOCIDE CONCENTRATE COMPOSITION FOR POLYMER MATRICES AND PROCESS FOR PREPARING SAME” (ISP INVESTMENTS INC., priority 2010, published 2013)

Key:
Type in all cases: cell-based
[1] = system: mixture of Aspergillus niger (ATCC 9642), Aureobasidium pullulans (ATCC 15233), Chaetomium globosum (ATCC 6205), Penicillium funiculosum (ATCC 11797) and …; experiment: Fungal resistance test ASTM G-21, flexible PVC coupons; parameters: key: 0 is no growth; 1 is traces of growth (less than 10%); 2 is light growth (10-30%); 3 is medium growth (30-60%); 4 is maximum growth (more than 60%); settings: rating at 4th week
Description: (§1) Plastic samples containing the biocide concentrate composition containing antioxidant can be prepared by mixing with commercially available flexible PVC and processing at 175° C. in a brabender. The samples are pressed to form coupons for testing purposes. A sample containing no biocide is also prepared to serve as a negative control against the samples of the present invention.
(§2) Fungal resistance tests are conducted according to ASTM G-21. Briefly, a fungal inoculum containing a mixture of Aspergillus niger (ATCC 9642), Aureobasidium pullulans (ATCC 15233), Chaetomium globosum (ATCC 6205), Penicillium funiculosum (ATCC 11797) and Trichoderma virens (ATCC 9645) is prepared to obtain a final spore concentration of about 10^5 spores/ml. The samples (in triplicate) are placed on Petri-dishes containing nutrient salts agar and incubated with the spore suspension. The samples are then incubated at 28° C. for 4 weeks and rated weekly. The fungal growth of the samples is rated on a scale of 0 to 4 where: 0 is no growth, 1 is traces of growth (less than 10%); 2 is light growth (10-30%); 3 is medium growth (30-60%) and 4 is maximum growth (more than 60%). The ratings shown in Tables 1 to 3 correspond to those at the end of the test i.e., on 4th week for three different compositions of combination of biocidal agents.

[2] = system: Streptoverticillium reticulum (ATCC 25607); experiment: Pink Stain test ASTM E1428, flexible PVC coupons; parameters: key: 0 is no stain; 1 is a trace of stain (less than 10%); 2 is light stain (10-30%); 3 is medium stain (30-50%); 4 is maximum stain (more than 50%); settings: 14 days
Description: as §1
Pink Stain tests are conducted according to ASTM E1428. Briefly, an inoculum containing the microorganism Streptoverticillium reticulum (ATCC 25607) is prepared. The inoculum is streaked onto the surface of Yeast Malt Extract Agar. The samples (in triplicate) are placed on the inoculated agar and incubated at 28° C. for 14 days. The degree of staining is rated on a scale of 0-4 where: 0 is no stain; 1 is a trace of stain (less than 10%); 2 is light stain (10-30%); 3 is medium stain (30-50%) and 4 is maximum stain (more than 50%). The ratings of the pink stain test are disclosed in Tables 1 to 3 for three different synergistic biocide compositions.

[3] = system: mixture of A. niger (ATCC 9642) and P. funiculosum (ATCC 11797); experiment: Zone of Inhibition, flexible PVC coupons on seeded Malt agar; parameters: key: A zone of inhibition around the sample is rated as “+”; The absence of zone of inhibition is rated as “−”; settings: 4 weeks
Description: as §1
Briefly a fungal inoculum containing a mixture of A. niger (ATCC 9642) and P. funiculosum (ATCC 11797) is prepared. The spore suspension is added to molten Malt agar to a final concentration of 10^4-10^5 spores/ml, poured onto the petri-dishes and allowed to dry. The samples are placed on the surface of the seeded agar and incubated at 28° C. for 4 weeks. A zone of inhibition around the sample is rated as “+”. The absence of zone of inhibition is rated as “−”. The results are shown in Tables 1 to 3 for three different combinations of biocidal agents.

[4] = system: mixture of Aspergillus niger (ATCC 9642), Aureobasidium pullulans (ATCC 15233), Chaetomium globosum (ATCC 6205), Penicillium funiculosum (ATCC 11797) and …; experiment: Fungal resistance ASTM G21 in swimming pool liner formulation; parameters: key: 0 is no growth; 1 is traces of growth (less than 10%); 2 is light growth (10-30%); 3 is medium growth (30-60%); 4 is maximum growth (more than 60%); settings: growth rating after 4 weeks
Description: as §1, §2
A swimming pool liner formulation is selected. The individual and synergistic biocidal compositions respectively IPBC, Folpet, OBPA and Folpet+IPBC are added and processed in the brabender as described in Example 1. The efficacy data for each sample is tested according to ASTM G21. Growth ratings after 4 weeks are described in the following Table 4.

[5] = system: mixture of Aspergillus niger (ATCC 9642), Aureobasidium pullulans (ATCC 15233), Chaetomium globosum (ATCC 6205), Penicillium funiculosum (ATCC 11797) and …; experiment: Fungal resistance ASTM G21 in wall covering formulation; parameters: key: 0 is no growth; 1 is traces of growth (less than 10%); 2 is light growth (10-30%); 3 is medium growth (30-60%); 4 is maximum growth (more than 60%); settings: growth rating after 4 weeks
Description: as §1, §2
A wall covering formulation is employed for evaluating the efficacy of the present biocide concentrate composition. The individual and synergistic biocidal compositions respectively IPBC, Folpet, OBPA, Folpet+IPBC, and Folpet+TBZ are added and processed in the brabender as disclosed in Example 1. The efficacy data for each sample was tested according to ASTM G21. Growth ratings after 4 weeks are described in the following Table 5.

c1ccc2[nH]c(-c3cscn3)nc2c1 [TBZ, Thiabendazole]
Fungal Resistance Test ([1]; Quantity 500 ppm): 1 (1 is traces of growth (less than 10%))
Pink Stain ([2]; Quantity 500 ppm): 2 (2 is light stain (10-30%))
Zone inhibition ([3]; Quantity 500 ppm): −

c1ccc2c(c1)Oc1ccccc1[As]2O[As]1c2ccccc2Oc2ccccc21 [OBPA, 10,10-oxybisphenoxarsine]
Fungal Resistance Test ([1]; Quantity 500 ppm): 0
Pink Stain ([2]; Quantity 500 ppm): 0
Zone inhibition ([3]; Quantity 500 ppm): +
Fungal Resistance Test ([4]; Quantity 400 ppm): 0
Fungal Resistance Test ([5]; Quantity 600 ppm): 0

CCCCCCCCn1sccc1=O [OIT, 2-Octyl-4-isothiazolin-3-one]
Fungal Resistance Test ([1]; Quantity 500 ppm): 1 (1 is traces of growth (less than 10%))
Pink Stain ([2]; Quantity 500 ppm): 1 (1 is a trace of stain (less than 10%))
Zone inhibition ([3]; Quantity 500 ppm): −

CCCCNC(=O)OCC#CI [IPBC, 3-iodo-2-propynylbutyl-carbamate]
Fungal Resistance Test ([1]; Quantity 500 ppm): 1 (1 is traces of growth (less than 10%))
Pink Stain ([2]; Quantity 500 ppm): 2 (2 is light stain (10-30%))
Zone inhibition ([3]; Quantity 500 ppm): +
Fungal Resistance Test ([4]; Quantity 500 ppm): 1 (1 is traces of growth (less than 10%))
Fungal Resistance Test ([5]; Quantity 1000 ppm): 2 (2 is light growth (10-30%))

O=C1c2ccccc2C(=O)N1SC(Cl)(Cl)Cl [Folpet, trichloromethyl-thio-phthalimide]
Fungal Resistance Test ([1]; Quantity 3000 ppm): 1 (1 is traces of growth (less than 10%))
Pink Stain ([2]; Quantity 3000 ppm): 0
Zone inhibition ([3]; Quantity 3000 ppm): −
Fungal Resistance Test ([4]; Quantity 2000 ppm): 1 (1 is traces of growth (less than 10%))
Fungal Resistance Test ([5]; Quantity 2000 ppm): 3 (3 is medium growth (30-60%))
